Experimental findings from US20070128217A1 (priority 2003, published 2007) are described below.

The subject of assay [1] is antibodies in sera from SARS patients (sera 1a, 1b, 2, 6, 37, 62, London, SARS-yellow, SARS-green). Type of assay: binding, human. More on the design: Binding of serum 6 to linear peptides of protein X1 of SARS-CoV Urbani / Binding of serum 37 to linear peptides of protein X1 of SARS-CoV Urbani / Binding of serum 6 to looped/cyclic peptide (PEPSCAN-ELISA) / Binding of serum 37 to looped/cyclic peptide (PEPSCAN-ELISA) / Binding of serum 37 to looped/cyclic peptides of protein X1 of SARS-CoV Urbani / Binding of serum 6 to linear peptides of protein X2 / Binding of serum 37 to linear peptides of protein X2 / Binding of serum 37 to looped/cyclic peptides of protein X2 of SARS-CoV Urbani / Binding of serum 6 to linear peptides of protein M of SARS-CoV Urbani / Binding of serum 37 to linear peptides of protein M of SARS-CoV Urbani / Binding of serum 6 to looped/cyclic peptides of protein M of SARS-CoV Urbani / Binding of serum 37 to looped/cyclic peptides of protein M of SARS-CoV Urbani / Binding of serum 6 to linear peptides of protein X3 of SARS-CoV Urbani / Binding of serum 37 to linear peptides of protein X3 of SARS-CoV Urbani / Binding of serum 37 to looped/cyclic peptides of protein X3 of SARS-CoV Urbani / Binding of serum 6 to linear peptides of protein X4 of SARS-CoV Urbani / Binding of serum 37 to linear peptides of protein X4 of SARS-CoV Urbani / Binding of serum 37 to looped/cyclic peptides of protein X4 of SARS-CoV Urbani / Binding of serum 6 to linear peptides of protein X5 of SARS-CoV Urbani / Binding of serum 37 to linear peptides of protein X5 of SARS-CoV Urbani / Binding of serum 37 to looped/cyclic peptides of protein X5 of SARS-CoV Urbani / Binding of serum 6 to linear peptides of protein N of SARS-CoV Urbani / Binding of serum 37 to linear peptides of protein N of SARS-CoV Urbani / Binding of serum 6 to linear peptide (PEPSCAN-ELISA) / Binding of serum 1a to looped/cyclic peptides of protein N of SARS-CoV Urbani / Binding of serum 1b to looped/cyclic peptides of protein N of SARS-CoV Urbani / Binding of serum 2 to looped/cyclic peptides of protein N of SARS-CoV Urbani / Binding of serum 6 to looped/cyclic peptides of protein N of SARS-CoV Urbani / Binding of serum 37 to looped/cyclic peptides of protein N of SARS-CoV Urbani / Binding of serum 62 to looped/cyclic peptides of protein N of SARS-CoV Urbani / Binding of serum London to looped/cyclic peptides of protein N of SARS-CoV Urbani / Binding of serum SARS-green to looped/cyclic peptides of protein N of SARS-CoV Urbani: unit not given here.

Assay [2] relates to control sera (pooled serum of ten healthy LUMC hospital workers; commercial negative donor pooled serum from the Dutch bloodbank). Type of assay: binding, human. More on the design: Binding of Control serum LUMC to linear peptides / Binding of Control serum Blood-bank to linear peptides / Binding of Control serum LUMC to looped peptides / Binding of Control Serum Blood-Bank to Looped peptides / Binding of Control serum LUMC to linear peptides of the protein M of SARS-CoV Urbani / Binding of Control serum Blood-bank to linear peptides of the protein M of SARS-CoV Urbani / Binding of Control serum LUMC to looped peptides of the protein M of SARS-CoV Urbani / Binding of Control Serum Blood-Bank to Looped peptides of the protein M of SARS-CoV Urbani: unit not given here.

The subject of assay [3] is rabbit serum obtained by immunizing a rabbit with the SARS-CoV strain Frankfurt 1. Type of assay: binding. More on the design: Binding of a rabbit serum to linear peptides / Binding of a rabbit serum to looped peptides / Rabbit serum linear peptides / Rabbit serum looped peptides / Binding of a rabbit serum to linear peptides of protein N of SARS-CoV Urbani (Rabbit serum linear peptides) / Binding of a rabbit serum to looped/cyclic peptides of protein N of SARS-CoV Urbani (Rabbit serum looped peptides): unit not given here.

On to FNPETNILLNVPLRG, for which, in assay [1], the “Binding of serum 1a to linear peptides of protein M of SARS-CoV Urbani” value came to 0.8, the “Binding of serum 1a to looped/cyclic peptides of protein M of SARS-CoV Urbani” value was 0.8, the “Binding of serum 1b to linear peptides of protein M of SARS-CoV Urbani” value is on record as 0.6 and the “Binding of serum 1b to looped/cyclic peptides of protein M of SARS-CoV Urbani” value came out at 0.8. Also, in assay [1], the “Binding of serum 2 to linear peptides of protein M of SARS-CoV Urbani” value was found to be 0.5, the “Binding of serum 2 to looped/cyclic peptides of protein M of SARS-CoV Urbani” value amounted to 0.7, the “Binding of serum 6 to linear peptides of protein M of SARS-CoV Urbani” value was found to be 0.5 and the “Binding of serum 6 to looped/cyclic peptides of protein M of SARS-CoV Urbani” value is recorded as 0.7. Besides, in assay [1], the “Binding of serum 37 to linear peptides of protein M of SARS-CoV Urbani” value worked out at 0.5, the “Binding of serum 37 to looped/cyclic peptides of protein M of SARS-CoV Urbani” value amounted to 0.9, the “Binding of serum 62 to linear peptides of protein M of SARS-CoV Urbani” value stood at 0.4 and the “Binding of serum 62 to looped/cyclic peptides of protein M of SARS-CoV Urbani” value is 0.8. Also, in assay [1], the “Binding of serum London to linear peptides of protein M of SARS-CoV Urbani” value is given as 0.3, the “Binding of serum London to looped/cyclic peptides of protein M of SARS-CoV Urbani” value was determined as 0.3, the “Binding of serum SARS-green to linear peptides of protein M of SARS-CoV Urbani” value was determined as 0.5 and the “Binding of serum SARS-green to looped/cyclic peptides of protein M of SARS-CoV Urbani” value turned out to be 0.3. For the same sequence, in assay [1], the “Binding of serum SARS-yellow to linear peptides of protein M of SARS-CoV Urbani” value was 0.2 and the “Binding of serum SARS-yellow to looped/cyclic peptides of protein M of SARS-CoV Urbani” value is given as 0.8. In assay [2], the “Binding of Control Serum Blood-Bank to Looped peptides of the protein M of SARS-CoV Urbani” value is on record as 0.8, the “Binding of Control serum Blood-bank to linear peptides of the protein M of SARS-CoV Urbani” value is given as 0.6, the “Binding of Control serum LUMC to linear peptides of the protein M of SARS-CoV Urbani” value was determined as 0.7 and the “Binding of Control serum LUMC to looped peptides of the protein M of SARS-CoV Urbani” value is reported as 0.9. Moreover, in assay [3], the “Rabbit serum linear peptides” value is given as 0.0 and the “Rabbit serum looped peptides” value was found to be 0.4.

As to AILTALRLCAYCCNI, in assay [1], the “Binding of serum 1a to linear peptides of protein E of SARS-CoV Urbani” value turned out to be 0.6, the “Binding of serum 1a to looped/cyclic peptides of protein E of SARS-CoV Urbani” value turned out to be 0.8, the “Binding of serum 1b to linear peptides of protein E of SARS-CoV Urbani” value was 0.4 and the “Binding of serum 1b to looped/cyclic peptides of protein E of SARS-CoV Urbani” value was 0.6. Further, in assay [1], the “Binding of serum 2 to linear peptides of protein E of SARS-CoV Urbani” value was 0.5, the “Binding of serum 2 to looped/cyclic peptides of protein E of SARS-CoV Urbani” value amounted to 0.7, the “Binding of serum 6 to linear peptides of protein E of SARS-CoV Urbani” value is recorded as 0.3 and the “Binding of serum 6 to looped/cyclic peptides of protein E of SARS-CoV Urbani” value was 0.5. Besides, in assay [1], the “Binding of serum 37 to linear peptides of protein E of SARS-CoV Urbani” value was found to be 0.4, the “Binding of serum 37 to looped/cyclic peptides of protein E of SARS-CoV Urbani” value amounted to 0.7, the “Binding of serum 62 to linear peptides of protein E of SARS-CoV Urbani” value is reported as 0.4 and the “Binding of serum 62 to looped/cyclic peptides of protein E of SARS-CoV Urbani” value was found to be 0.8. In addition, in assay [1], the “Binding of serum London to linear peptides of protein E of SARS-CoV Urbani” value is listed as 0.5, the “Binding of serum London to looped/cyclic peptides of protein E of SARS-CoV Urbani” value came to 0.4, the “Binding of serum SARS-green to linear peptides of protein E of SARS-CoV Urbani” value was 0.5 and the “Binding of serum SARS-green to looped/cyclic peptides of protein E of SARS-CoV Urbani” value worked out at 0.5. In assay [1], the “Binding of serum SARS-yellow to linear peptides of protein E of SARS-CoV Urbani” value is 0.1 and the “Binding of serum SARS-yellow to looped/cyclic peptides of protein E of SARS-CoV Urbani” value is recorded as 0.9. In addition, in assay [2], the “Binding of Control Serum Blood-Bank to Looped peptides” value stood at 0.6, the “Binding of Control serum Blood-bank to linear peptides” value worked out at 0.6, the “Binding of Control serum LUMC to linear peptides” value is 0.6 and the “Binding of Control serum LUMC to looped peptides” value was 0.8. Also, in assay [3], the “Binding of a rabbit serum to linear peptides” value worked out at 0.2 and the “Binding of a rabbit serum to looped peptides” value is listed as 0.6.

As for GTLIVNSVLLFLAFV, in assay [1], the “Binding of serum 1a to linear peptides of protein E of SARS-CoV Urbani” value is reported as 0.8, the “Binding of serum 1a to looped/cyclic peptides of protein E of SARS-CoV Urbani” value came out at 0.2, the “Binding of serum 1b to linear peptides of protein E of SARS-CoV Urbani” value is reported as 0.7 and the “Binding of serum 1b to looped/cyclic peptides of protein E of SARS-CoV Urbani” value is recorded as 0.0. Moreover, in assay [1], the “Binding of serum 2 to linear peptides of protein E of SARS-CoV Urbani” value was determined as 0.4, the “Binding of serum 2 to looped/cyclic peptides of protein E of SARS-CoV Urbani” value came out at 0.6, the “Binding of serum 6 to linear peptides of protein E of SARS-CoV Urbani” value was 0.9 and the “Binding of serum 6 to looped/cyclic peptides of protein E of SARS-CoV Urbani” value is 0.3. Moreover, in assay [1], the “Binding of serum 37 to linear peptides of protein E of SARS-CoV Urbani” value was 0.8, the “Binding of serum 37 to looped/cyclic peptides of protein E of SARS-CoV Urbani” value was 0.2, the “Binding of serum 62 to linear peptides of protein E of SARS-CoV Urbani” value turned out to be 0.7 and the “Binding of serum 62 to looped/cyclic peptides of protein E of SARS-CoV Urbani” value is 0.4. Besides, in assay [1], the “Binding of serum London to linear peptides of protein E of SARS-CoV Urbani” value is recorded as 0.5, the “Binding of serum London to looped/cyclic peptides of protein E of SARS-CoV Urbani” value is given as 0.4, the “Binding of serum SARS-green to linear peptides of protein E of SARS-CoV Urbani” value was found to be 0.4 and the “Binding of serum SARS-green to looped/cyclic peptides of protein E of SARS-CoV Urbani” value is reported as 0.4. In addition, in assay [1], the “Binding of serum SARS-yellow to linear peptides of protein E of SARS-CoV Urbani” value was determined as 0.2 and the “Binding of serum SARS-yellow to looped/cyclic peptides of protein E of SARS-CoV Urbani” value came out at 0.0. Also, in assay [2], the “Binding of Control Serum Blood-Bank to Looped peptides” value turned out to be 0.7, the “Binding of Control serum Blood-bank to linear peptides” value was determined as 0.7, the “Binding of Control serum LUMC to linear peptides” value worked out at 0.5 and the “Binding of Control serum LUMC to looped peptides” value stood at 0.3. Also, in assay [3], the “Binding of a rabbit serum to linear peptides” value was found to be 0.6 and the “Binding of a rabbit serum to looped peptides” value is recorded as 0.0.

On to TLIVNSVLLFLAFVV, for which, in assay [1], the “Binding of serum 1a to linear peptides of protein E of SARS-CoV Urbani” value is 0.7, the “Binding of serum 1a to looped/cyclic peptides of protein E of SARS-CoV Urbani” value came to 0.6, the “Binding of serum 1b to linear peptides of protein E of SARS-CoV Urbani” value was determined as 0.5 and the “Binding of serum 1b to looped/cyclic peptides of protein E of SARS-CoV Urbani” value was 0.5. Further, in assay [1], the “Binding of serum 2 to linear peptides of protein E of SARS-CoV Urbani” value was 0.4, the “Binding of serum 2 to looped/cyclic peptides of protein E of SARS-CoV Urbani” value came to 0.7, the “Binding of serum 6 to linear peptides of protein E of SARS-CoV Urbani” value is listed as 0.5 and the “Binding of serum 6 to looped/cyclic peptides of protein E of SARS-CoV Urbani” value is given as 0.4. Also, in assay [1], the “Binding of serum 37 to linear peptides of protein E of SARS-CoV Urbani” value amounted to 0.5, the “Binding of serum 37 to looped/cyclic peptides of protein E of SARS-CoV Urbani” value came to 0.7, the “Binding of serum 62 to linear peptides of protein E of SARS-CoV Urbani” value was determined as 0.3 and the “Binding of serum 62 to looped/cyclic peptides of protein E of SARS-CoV Urbani” value amounted to 0.6. Further, in assay [1], the “Binding of serum London to linear peptides of protein E of SARS-CoV Urbani” value stood at 0.6, the “Binding of serum London to looped/cyclic peptides of protein E of SARS-CoV Urbani” value was 0.4, the “Binding of serum SARS-green to linear peptides of protein E of SARS-CoV Urbani” value was determined as 0.6 and the “Binding of serum SARS-green to looped/cyclic peptides of protein E of SARS-CoV Urbani” value was determined as 0.5. Also, in assay [1], the “Binding of serum SARS-yellow to linear peptides of protein E of SARS-CoV Urbani” value amounted to 0.3 and the “Binding of serum SARS-yellow to looped/cyclic peptides of protein E of SARS-CoV Urbani” value came out at 0.6. For the same sequence, in assay [2], the “Binding of Control Serum Blood-Bank to Looped peptides” value came out at 0.8, the “Binding of Control serum Blood-bank to linear peptides” value is 0.6, the “Binding of Control serum LUMC to linear peptides” value was found to be 0.4 and the “Binding of Control serum LUMC to looped peptides” value came out at 0.8. Also, in assay [3], the “Binding of a rabbit serum to linear peptides” value is reported as 0.1 and the “Binding of a rabbit serum to looped peptides” value is reported as 0.3.
